These results are taken from US8080657B2, “Compounds of reverse turn mimetics and the use thereof” (Choongwae Pharma Corporation, priority 2008, dated 2011).

The structures appear in SMILES notation. Read-outs that look alike come from different tables or passages of the source.

For assay [1], the target named is T1, cDNA-expressed human hepatic CYP3A4 (Homo sapiens, UniProt P08684).
T1 construct: purchased BD Gentest 456202
Kind of assay: P450 CYP3A4 inhibitory activity screening (BFC substrate, fluorescence). In kind it is biochemical. The note with it: human CYP3A4 supersome, substrate BFC, 10 min incubation at 37° C.; read-out: IC50 values of Compounds against CYP3A4 activity. The protocol:
P450 CYP3A4 Inhibitory Activity Screening
Assay was conducted in a 200 μL volume in 96-well microtiter plates using cDNA-expressed human hepatic CYP3A4 (supersome, BD Gentest™ #456202). 7-Benzyloxy-4-trifluoromethyl-coumarin (BFC) was used as a substrate for CYP3A4. Test articles and substrate BFC were dissolved in 100% acetonitrile. The final volume of acetonitrile in the incubation mixture was less than 1% (volume/volume). Potassium phosphate buffer (pH 7.4, final concentration 0.1 M), MgCl2 (final concentration 8.3 mM), EDTA (final concentration 1.67 mM), a test article stock solution, a CYP3A4 supersome and NADPH (final concentration 0.25 mM) were added to each well. The reaction was initiated by the addition of substrate (BFC, final concentration 30 µM) after a 10 min pre-incubation at 37° C. After 10 min incubation at 37° C., the reaction was terminated by the addition of 75 μL of acetonitrile:0.5 M Tris-base=4:1 (volume/volume). Thereafter, Fluorescent signal was measured using a fluorometer. BFC metabolite, 7-hydroxy-4-trifluoromethyl-coumarin, was measured using an excitation wavelength of 409 nm and an emission wavelength of 530 nm.

The subject of a further assay is Wnt signaling. Nature of the assay: TopFlash reporter gene bioassay in SW480 cells. The class given is cell-based. The following applies: read-out: RGA, IC50 (μM) TopF. On the technique in general: Reporter assays use an easily measured gene product as a stand-in for the process of interest.
Setting [2] is: Homo sapiens, SW480, TopFlash reporter gene assay, inhibition of Wnt signaling.
Setting [3] is: TopFlash reporter gene assay, inhibition of Wnt signaling.

T1 sequence (P08684 whole entry): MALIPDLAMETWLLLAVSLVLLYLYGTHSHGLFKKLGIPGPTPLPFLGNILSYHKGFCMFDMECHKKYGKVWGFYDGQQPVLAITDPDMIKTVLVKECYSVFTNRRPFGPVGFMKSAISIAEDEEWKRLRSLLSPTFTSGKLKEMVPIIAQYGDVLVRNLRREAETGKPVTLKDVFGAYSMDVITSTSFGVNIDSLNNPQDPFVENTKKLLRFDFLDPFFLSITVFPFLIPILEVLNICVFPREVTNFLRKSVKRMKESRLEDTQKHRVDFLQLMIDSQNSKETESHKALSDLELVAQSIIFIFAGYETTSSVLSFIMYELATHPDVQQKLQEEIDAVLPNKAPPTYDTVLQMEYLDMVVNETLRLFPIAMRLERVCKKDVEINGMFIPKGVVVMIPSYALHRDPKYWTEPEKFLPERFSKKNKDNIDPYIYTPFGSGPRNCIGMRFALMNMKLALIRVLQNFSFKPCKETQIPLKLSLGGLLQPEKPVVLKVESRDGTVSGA

Consider `C=CCN1CC(=O)N2[C@@H](Cc3ccc(O)cc3)C(=O)N(Cc3cccc(NC(=O)OC)c3)C[C@@H]2N1C(=O)NCc1ccccc1` (single isomer, unassigned) [C], for which the IC50 in assay [1] amounted to 24.2 µM.
Same read-out and setting: for `C=CCN1CC(=O)N2[C@@H](Cc3ccc(O)cc3)C(=O)N(Cc3cccc(C(=O)NC)n3)C[C@@H]2N1C(=O)NCc1ccccc1` [A] the value was 13.1 µM; for `C=CCN1CC(=O)N2[C@@H](Cc3ccc(O)cc3)C(=O)N(Cc3cccc(N(C)C(=O)OC)c3)C[C@@H]2N1C(=O)NCc1ccccc1` [D], 10.2 µM.
On to `C=CCN1CC(=O)N2[C@@H](Cc3ccc(O)cc3)C(=O)N(Cc3cccc4c3nc(C(F)(F)F)n4C)C[C@@H]2N1C(=O)NCc1ccccc1` [E], for which, in assay [1], the IC50 was greater than 10 µM.
For the molecule `C=CCN1CC(=O)N2[C@@H](Cc3ccc(OS(=O)(=O)NC(=O)OCCN(C)C)cc3)C(=O)N(Cc3cccc4c(C(=O)C5CC5)c[nH]c34)C[C@@H]2N1C(=O)NCc1ccccc1` [compound 220], the 50% inhibitory concentration (IC50) with Wnt signaling (setting [2]) turned out to be 33.1 ± 4.07 µM.
With `C=CCN1CC(=O)N2C(Cc3ccc(O)cc3)C(=O)N(Cc3ccccc3N3CCNCC3)CC2N1C(=O)NCc1ccccc1` (stereo not shown) [compound 221], the IC50 in the assay on Wnt signaling (setting [2]) is 36.1 ± 2.69 µM.
Still for that read-out and setting: for `C=CCN1CC(=O)N2[C@@H](Cc3ccc(OCC(O)CO)cc3)C(=O)N(Cc3cccc4scnc34)C[C@@H]2N1C(=O)NCc1ccccc1` (stereo partly shown) [compound 222] the value was 36.4 ± 2 µM.
Consider `C=CCN1CC(=O)N2[C@@H](Cc3ccc(O)cc3)C(=O)N(Cc3ccc4cc[nH]c4c3)C[C@@H]2N1C(=O)NCc1ccccc1` [compound 223], for which the IC50 in the assay with Wnt signaling (Homo sapiens, SW480) came out at 4.01 ± 0.96 µM.
As to `C=CCN1CC(=O)N2[C@@H](Cc3ccc(O)cc3)C(=O)N(Cc3ccc(F)c4scnc34)C[C@@H]2N1C(=O)NCc1ccc(OC)c(OC)c1` [compound 224], the IC50 with Wnt signaling (setting [2]) was determined as 4.3 ± 0.7 µM.
On the same count and under the same terms, the same measure for `C=CCN1CC(=O)N2[C@@H](Cc3ccc(O)cc3)C(=O)N(Cc3cccc(NC(N)=O)c3)C[C@@H]2N1C(=O)NCc1ccccc1` [compound 225]: 4.3 ± 0.67 µM; for `C=CCN1CC(=O)N2[C@@H](Cc3ccc(O)cc3)C(=O)N(Cc3cccc(OC)c3OC3Cc4ccccc4C3)C[C@@H]2N1C(=O)NCc1ccccc1` [compound 226]: 4.33 ± 0.5 µM; for `C=CCN1CC(=O)N2[C@@H](Cc3ccc(O)cc3)C(=O)N(Cc3ccc4ncoc4c3)C[C@@H]2N1C(=O)NCc1ccccc1` [compound 228]: 4.51 ± 0.72 µM.
As for `C=CCN1CC(=O)N2[C@@H](Cc3ccc(OS(N)(=O)=O)cc3)C(=O)N(Cc3cccc(C(N)=O)c3)C[C@@H]2N1C(=O)NCc1ccccc1` [compound 229], in the assay with Wnt signaling (setting [2]), the IC50 was determined as 4.78 ± 0.69 µM.
For `CN1CC(=O)N2[C@@H](Cc3ccc(O)cc3)C(=O)N(Cc3cccc4scnc34)C[C@@H]2N1C(=O)NCc1ccccc1` [compound 232], in the assay with Wnt signaling (setting [2]), the IC50 was 4.97 ± 0.73 µM.
Same read-out and setting: for `C=CCN1CC(=O)N2[C@@H](Cc3ccc(O)cc3)C(=O)N(Cc3cncc(C(=O)OC)c3)C[C@@H]2N1C(=O)NCc1ccccc1` [compound 233] the value was 4.98 ± 0.69 µM.
Take `C=CCN1CC(=O)N2[C@@H](Cc3ccc(O)c(Cl)c3)C(=O)N(Cc3cccc4scnc34)C[C@@H]2N1C(=O)NCc1ccccc1` [compound 234]: the IC50 with Wnt signaling (setting [2]) is 40.2 ± 5.7 µM.
Same read-out and setting: the same measure for `C=CCN1CC(=O)N2[C@@H](Cc3ccc(O)c(Br)c3)C(=O)N(Cc3cccc4scnc34)C[C@@H]2N1C(=O)NCc1ccccc1` [compound 235]: 40.7 ± 6.4 µM; for `C=CCN1CC(=O)N2[C@@H](Cc3ccc(O)cc3)C(=O)N(Cc3ccc(C(C)(C)C)cc3)C[C@@H]2N1C(=O)NCc1ccccc1` [compound 236]: 41.7 ± 4.2 µM.
On the same count and under the same terms, for `C=CCN1CC(=O)N2[C@@H](Cc3ccc(O)cc3)C(=O)N(Cc3ccc(F)c4scnc34)C[C@@H]2N1C(=O)NCC1CCCCC1` [compound 238] the value was 49.8 ± 4.8 µM; for `C=CCN1CC(=O)N2[C@@H](Cc3ccc(O)cc3)C(=O)N(Cc3cccc(C(=O)N4CC=CC4)c3)C[C@@H]2N1C(=O)NCc1ccccc1` [compound 239], 5.09 ± 1.32 µM; for `C=CCN1CC(=O)N2[C@@H](Cc3ccc(O)cc3)C(=O)N(Cc3cccc(C(=O)N(C)C)c3)C[C@@H]2N1C(=O)NCc1ccccc1` [compound 240], 5.41 ± 0.89 µM.
The same measure, in the same setting: the same measure for `C=CCN1CC(=O)N2[C@@H](Cc3ccc(O)cc3)C(=O)N(Cc3cccc(NS(N)(=O)=O)c3)C[C@@H]2N1C(=O)NCc1ccccc1` [compound 243]: 5.81 ± 0.58 µM; for `C=CCN1CC(=O)N2[C@@H](Cc3ccc(O)cc3)C(=O)N(Cc3cc4c(cc3[N+](=O)[O-])OCO4)C[C@@H]2N1C(=O)NCc1ccccc1` [compound 244]: 5.98 ± 1.03 µM.
With `C=CCN1CC(=O)N2[C@@H](Cc3ccc(O)cc3)C(=O)N(Cc3ccc(F)c4scnc34)C[C@@H]2N1C(=O)NCCc1ccccc1` [compound 245], the IC50 in the assay on Wnt signaling (setting [3]) came out at 6.19 ± 0.73 µM.
`C=CCN1CC(=O)N2[C@@H](Cc3ccc(O)cc3)C(=O)N(Cc3csc4ccc(NS(C)(=O)=O)cc34)C[C@@H]2N1C(=O)NCc1ccccc1` [compound 246]: the 50% inhibitory concentration (IC50) in the assay with Wnt signaling (Homo sapiens, SW480) came to 6.59 ± 0.86 µM.
For the molecule `C=CCN1CC(=O)N2[C@@H](Cc3ccc(O)cc3)C(=O)N(Cc3ccc(OCCC)cc3)C[C@@H]2N1C(=O)NCc1ccccc1` [compound 247], in the assay on Wnt signaling (setting [2]), the IC50 is 6.66 ± 0.88 µM.
On the same count and under the same terms, the same measure for `C=CCN1CC(=O)N2[C@@H](Cc3ccc(O)cc3)C(=O)N(Cc3cccc(-c4ccc(O)cc4)n3)C[C@@H]2N1C(=O)NCc1ccccc1` [compound 248]: 6.71 ± 1.57 µM; for `C=CCN1CC(=O)N2[C@@H](Cc3ccc(O)cc3)C(=O)N(Cc3ccc(OCC)cc3)C[C@@H]2N1C(=O)NCc1ccccc1` [compound 249]: 6.8 ± 1.5 µM.
The same measure, in the same setting: the same measure for `C=CCN1CC(=O)N2[C@@H](Cc3ccc(O)cc3)C(=O)N(Cc3csc4c(NC(C)=O)cccc34)C[C@@H]2N1C(=O)NCc1ccccc1` [compound 250]: 6.98 ± 1.45 µM.
Turning to `C=CCN1CC(=O)N2[C@@H](Cc3ccc(OC(N)=O)cc3)C(=O)N(Cc3ccc(F)cc3F)C[C@@H]2N1C(=O)NCc1ccccc1` [compound 251], in the assay with Wnt signaling (Homo sapiens, SW480), the concentration for half-maximal inhibition (IC50) amounted to 1.14 ± 0.07 µM.
On to `C=CCN1CC(=O)N2[C@@H](Cc3ccc(O)cc3)C(=O)N(Cc3cccc(OC)c3Oc3cccc(F)c3)C[C@@H]2N1C(=O)NCc1ccccc1` [compound 252], for which, in the assay with Wnt signaling (setting [2]), the half-maximal inhibitory concentration (IC50) was found to be 7.05 ± 0.87 µM.
Still for that read-out and setting: for `C=CCN1CC(=O)N2[C@@H](Cc3ccc(O)cc3)C(=O)N(Cc3c[nH]c4ccc(OC)cc34)C[C@@H]2N1C(=O)NCc1ccccc1` [compound 253] the value was 7.1 ± 0.99 µM.
Still for that read-out and setting: the same measure for `C=CCN1CC(=O)N2[C@@H](Cc3ccc(O)cc3)C(=O)N(Cc3ccc(N)c([N+](=O)[O-])c3)C[C@@H]2N1C(=O)NCc1ccccc1` [compound 254]: 7.13 ± 1.35 µM; for `C=CCN1CC(=O)N2[C@@H](Cc3ccc(O)cc3)C(=O)N(Cc3ccc(F)c4scnc34)C[C@@H]2N1C(=O)NCc1ccc(C#N)cc1` [compound 255]: 7.17 ± 1.33 µM; for `C=CCN1CC(=O)N2[C@@H](Cc3ccc(O)cc3)C(=O)N(Cc3cccc(C(=O)NCCO)c3)C[C@@H]2N1C(=O)NCc1ccccc1` [compound 256]: 7.2 ± 1.06 µM.
In the case of `C=CCN1CC(=O)N2[C@@H](Cc3ccc(O)cc3)C(=O)N(Cc3cccnc3-c3cccc(C#N)c3)C[C@@H]2N1C(=O)NCc1ccccc1` [compound 257], in the assay on Wnt signaling (setting [2]), the IC50 came out at 7.26 ± 1.3 µM.
In the case of `C=CCN1CC(=O)N2[C@@H](Cc3ccc(O)cc3)C(=O)N(Cc3cccc(C(=O)NC)c3[N+](=O)[O-])C[C@@H]2N1C(=O)NCc1ccccc1` [compound 258], the IC50 with Wnt signaling (setting [2]) worked out at 7.51 ± 2.1 µM.
Same read-out and setting: for `C=CCN1CC(=O)N2[C@@H](Cc3ccc(O)cc3)C(=O)N(Cc3ccc([N+](=O)[O-])c(O)c3)C[C@@H]2N1C(=O)NCc1ccccc1` [compound 259] the value was 7.62 ± 1.89 µM; for `C=CCN1CC(=O)N2[C@@H](Cc3ccc(O)cc3)C(=O)N(Cc3cccc(C(=O)Nc4cc[nH]n4)c3)C[C@@H]2N1C(=O)NCc1ccccc1` [compound 260], 8.43 ± 2.07 µM.
Consider `C=CCN1CC(=O)N2[C@@H](Cc3ccc(O)cc3)C(=O)N(Cc3cccc(-c4ccc(S(C)(=O)=O)cc4)n3)C[C@@H]2N1C(=O)NCc1ccccc1` [compound 261], for which the IC50 in the assay with Wnt signaling (setting [2]) stood at 8.48 ± 0.9 µM.
As to `C=CCN1CC(=O)N2[C@@H](Cc3ccc(O)cc3)C(=O)N(Cc3cccc(OC)c3OC)C[C@@H]2N1C(=O)NCc1ccccn1` [compound 262], in the assay with Wnt signaling (setting [2]), the IC50 came to 8.48 ± 1.37 µM.
For the molecule `C=CCN1CC(=O)N2[C@@H](Cc3ccc(O)cc3)C(=O)N(CC3=CS(=O)(=O)c4ccccc43)C[C@@H]2N1C(=O)NCc1ccccc1` [compound 263], the IC50 in the assay with Wnt signaling (setting [2]) worked out at 9.09 ± 0.67 µM.
With `C=CCN1CC(=O)N2[C@@H](Cc3ccc(O)cc3)C(=O)N(Cc3ccnc(N)n3)C[C@@H]2N1C(=O)NCc1ccccc1` [compound 264], in the assay with Wnt signaling (setting [2]), the IC50 worked out at 9.11 ± 1.82 µM.
Regarding `C=CCN1CC(=O)N2[C@@H](Cc3ccc(O)cc3)C(=O)N(Cc3cccc(C(=O)NO)c3)C[C@@H]2N1C(=O)NCc1ccccc1` [compound 265], the IC50 in the assay with Wnt signaling (setting [2]) was found to be 9.3 ± 0.53 µM.
For `C=CCN1CC(=O)N2[C@@H](Cc3ccc(O)cc3)C(=O)N(Cc3cccc(C(=O)NC4CCCC4)c3)C[C@@H]2N1C(=O)NCc1ccccc1` [compound 266], the IC50 in the assay with Wnt signaling (setting [3]) is 9.43 ± 1.65 µM.
Consider `C=CCN1CC(=O)N2[C@@H](Cc3ccc(O)cc3)C(=O)N(Cc3cccc4c3ncn4CC(N)=O)C[C@@H]2N1C(=O)NCc1ccccc1` [compound 267], for which the IC50 in the assay with Wnt signaling (setting [2]) stood at 6.63 ± 1.35 µM.

As a reminder, the IC50 is the concentration at which inhibition is half-maximal.
